Results published in patent US8431563B2 (priority 2010, dated 2013).
pEC50, pIC50: −log10 of the molar value.

What was measured:
[1] = molecular target: T1, GK-GKRP (Homo sapiens, UniProt Q14397); assay: biochemical
T1 sequence (Q14397 1-625): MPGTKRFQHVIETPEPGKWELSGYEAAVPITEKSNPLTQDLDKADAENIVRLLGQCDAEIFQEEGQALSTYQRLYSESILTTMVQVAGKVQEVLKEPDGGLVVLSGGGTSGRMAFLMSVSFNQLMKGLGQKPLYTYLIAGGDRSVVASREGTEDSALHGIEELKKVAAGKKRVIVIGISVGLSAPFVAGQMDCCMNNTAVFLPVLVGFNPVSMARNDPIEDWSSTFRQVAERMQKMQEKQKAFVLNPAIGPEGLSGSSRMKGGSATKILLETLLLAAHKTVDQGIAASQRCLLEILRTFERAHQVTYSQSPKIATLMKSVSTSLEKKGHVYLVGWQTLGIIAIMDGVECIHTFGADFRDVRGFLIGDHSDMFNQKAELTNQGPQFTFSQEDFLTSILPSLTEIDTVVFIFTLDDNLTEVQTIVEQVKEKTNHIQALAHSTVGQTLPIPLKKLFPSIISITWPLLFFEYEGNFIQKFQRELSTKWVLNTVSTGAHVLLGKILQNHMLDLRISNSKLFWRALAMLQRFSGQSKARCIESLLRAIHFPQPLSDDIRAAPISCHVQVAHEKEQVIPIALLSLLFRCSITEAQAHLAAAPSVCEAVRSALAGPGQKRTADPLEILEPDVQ

[2] = molecular target: T1, GK-GKRP; assay: biochemical; conditions: GK-GKRP IC50 (Binding)

Compound	pEC50 [1]	pIC50 [2]
CC1(C)C(=O)NCCN1C[C@H]1CN(S(=O)(=O)c2ccc(N)nc2)CCN1c1ncc(C(O)(C(F)(F)F)C(F)(F)F)cn1 [Example 235, 4-(((2S)-4-((6-amino-3-pyridinyl)sulfonyl)-1-(5-(2,2,2-trifluoro-1-hydroxy-1-(trifluoromethyl)ethyl)-2-pyrimidinyl)-2-piperazinyl)methyl)-3,3-dimethyl-2-piperazinone]	7.89	8.10
Nc1ccc(S(=O)(=O)c2ccc(-c3ncc(C(O)(C(F)(F)F)C(F)(F)F)cn3)cn2)cn1 [Example 267, 2-(2-(6-((6-amino-3-pyridinyl)sulfonyl)-3-pyridinyl)-5-pyrimidinyl)-1,1,1,3,3,3-hexafluoro-2-propanol]	6.95	6.99
CC(C)S(=O)(=O)NC[C@H]1CN(S(=O)(=O)c2cccs2)CCN1c1ccc(C(C)(O)C(F)(F)F)cc1 (mixture of isomers) [Example 237, N-(((2S)-4-(thiophen-2-ylsulfonyl)-1-(4-(1,1,1-trifluoro-2-hydroxypropan-2-yl)phenyl)piperazin-2-yl)methyl)propane-2-sulfonamide]	6.20	6.47
Cc1cc(S(=O)(=O)c2ccc(N)nc2)ccc1-c1ncc(C(O)(C(F)(F)F)C(F)(F)F)cn1 [Example 268, 2-(2-(4-((6-amino-3-pyridinyl)sulfonyl)-2-methylphenyl)-5-pyrimidinyl)-1,1,1,3,3,3-hexafluoro-2-propanol]	6.63	6.99
CCC(C)S(=O)(=O)NC[C@H]1CN(S(=O)(=O)c2cccs2)CCN1c1ccc(C(C)(O)C(F)(F)F)cc1 (stereo partly drawn) [Example 238, N-(((2S)-4-(2-thiophenylsulfonyl)-1-(4-(2,2,2-trifluoro-1-hydroxy-1-methylethyl)phenyl)-2-piperazinyl)methyl)-2-butanesulfonamide]	6.57	6.69
CC(O)(c1ccc(N2CCN(S(=O)(=O)c3cccs3)C[C@@H]2CN2C(=O)NC(=O)C23CCC3)cc1)C(F)(F)F (mixture of isomers) [Example 236, 5-(((2S)-4-(2-thiophenylsulfonyl)-1-(4-(2,2,2-trifluoro-1-hydroxy-1-methylethyl)phenyl)-2-piperazinyl)methyl)-5,7-diazaspiro[3.4]octane-6,8-dione]	6.44	6.42
O=S(=O)(c1ccccc1)c1ccc(-c2ncc(C(O)(C(F)(F)F)C(F)(F)F)cn2)cc1 [Example 263, 1,1,1,3,3,3-hexafluoro-2-(2-(4-(phenylsulfonyl)phenyl)-5-pyrimidinyl)-2-propanol]	6.32	6.32
CC#C[C@H]1CN(S(=O)(=O)c2ccccc2)CCN1c1ccc(C(O)(C(F)(F)F)C(F)(F)F)cc1 [Example 247, 1,1,1,3,3,3-hexafluoro-2-(4-((2S)-4-(phenylsulfonyl)-2-(1-propyn-1-yl)-1-piperazinyl)phenyl)-2-propanol]		7.68
CC(O)(c1ccc(N2CCN(S(=O)(=O)c3cccs3)C[C@@H]2CN(c2ccc(F)cc2)S(C)(=O)=O)cc1)C(F)(F)F (mixture of isomers) [Example 255, N-(4-fluorophenyl)-N-(((2R)-4-(2-thiophenylsulfonyl)-1-(4-(2,2,2-trifluoro-1-hydroxy-1-methylethyl)phenyl)-2-piperazinyl)methyl)methanesulfonamide]		8.70
Nc1ccc(S(=O)(=O)N2CCN(c3ncc(C(O)(C(F)(F)F)C(F)(F)F)cn3)C(C#CC3CC3)C2)cn1 (stereo not drawn) [Example 246, 2-(2-(4-((6-amino-3-pyridinyl)sulfonyl)-2-(cyclopropylethynyl)-1-piperazinyl)-5-pyrimidinyl)-1,1,1,3,3,3-hexafluoro-2-propanol]	6.50	6.72
CC(=O)N(C[C@H]1CN(S(=O)(=O)c2cccs2)CCN1c1ccc(C(C)(O)C(F)(F)F)cc1)c1ccc(F)cc1 (mixture of isomers) [Example 256, N-(4-fluorophenyl)-N-(((2S)-4-(2-thiophenylsulfonyl)-1-(4-(2,2,2-trifluoro-1-hydroxy-1-methylethyl)phenyl)-2-piperazinyl)methyl)acetamide]		7.64
CC#CC1CN(S(=O)(=O)c2cnc(N)c(F)c2)CCN1c1ccc(C(O)(C(F)(F)F)C(F)(F)F)cc1 (racemic) [Example 250, 2-(4-(4-((6-amino-5-fluoro-3-pyridinyl)sulfonyl)-2-(1-propyn-1-yl)-1-piperazinyl)phenyl)-1,1,1,3,3,3-hexafluoro-2-propanol]		7.82
CC(C)N1C(=O)N(C[C@H]2CN(S(=O)(=O)c3cccs3)CCN2c2ccc(C(C)(O)C(F)(F)F)cc2)C(C)(C)C1=O (mixture of isomers) [Example 242, 5,5-dimethyl-3-(1-methylethyl)-1-(((2S)-4-(2-thiophenylsulfonyl)-1-(4-(2,2,2-trifluoro-1-hydroxy-1-methylethyl)phenyl)-2-piperazinyl)methyl)-2,4-imidazolidinedione]	7.54	7.72
CC#CC1CN(S(=O)(=O)c2nccs2)CCN1c1ccc(C(O)(C(F)(F)F)C(F)(F)F)cc1 (stereo not drawn) [Example 248]		7.82
CC(O)(c1ccc(N2CCN(S(=O)(=O)c3cccs3)C[C@@H]2CN2CCNC(C(F)(F)F)C2)cc1)C(F)(F)F (single isomer, unassigned) [Example 270 Peak 1]		6.60
CC(O)CC1CN(S(=O)(=O)c2ccc(N)nc2)CCN1c1ncc(C(O)(C(F)(F)F)C(F)(F)F)cn1 (stereo not drawn) [Example 244, 2-(2-(4-((6-amino-3-pyridinyl)sulfonyl)-2-(2-hydroxypropyl)-1-piperazinyl)-5-pyrimidinyl)-1,1,1,3,3,3-hexafluoro-2-propanol]		6.13
Nc1ccc(S(=O)(=O)N2CCN(c3ccc(C(O)(C(F)(F)F)C(F)(F)F)cc3)[C@@H](CS(=O)(=O)c3ccccc3)C2)cn1 [Example 273, 2-(4-((2R)-4-((6-amino-3-pyridinyl)sulfonyl)-2-((phenylsulfonyl)methyl)-1-piperazinyl)phenyl)-1,1,1,3,3,3-hexafluoro-2-propanol]		7.31
CC(C)CS(=O)(=O)N(C[C@H]1CN(S(=O)(=O)c2cccs2)CCN1c1ccc(C(C)(O)C(F)(F)F)cc1)c1cccnc1 (mixture of isomers) [Example 253, 2-methyl-N-3-pyridinyl-N-(((2R)-4-(2-thiophenylsulfonyl)-1-(4-(2,2,2-trifluoro-1-hydroxy-1-methylethyl)phenyl)-2-piperazinyl)methyl)-1-propanesulfonamide]		7.46
